Assay results published in article PMC11864979, “First-in-class ultralong-target-residence-time p38α inhibitors as a mitosis-targeted therapy for colorectal cancer” (Nature Cancer, 2025).
Values joined by “and” are separate entries in the source; they are usually repeats but may differ in a detail not shown here. Equal values may be shown once. Read-outs that look alike come from different tables or passages of the source.

How the values were obtained:
HT-29 = test: cell viability in human CRC cell line HT-29; assay type: cell-based; details: Homo sapiens, HT-29, 10.0000 µM, ED Fig. 9h, replicates, read-out: HT-29 Cell viability (%)
Method: (§1) To generate KAP^2D cells, KAP organoids were isolated from Matrigel, fragmented by mechanical dissociation and plated without any extracellular matrix on common cell culture dishes. Phoenix-Eco packaging cells (CRL-3214), HCT-15 (CCL-225), HCT 116 (CCL-247), COLO 205 (CCL-222), LS 174T (CL-188), RKO (CRL-2577) and HT-29 (HTB-38) were obtained from the American Type Culture Collection. The cells were cultured at 37 °C and 7% CO2 with RPMI (KAP^2D cells) or DMEM (other cell lines), supplemented with 10% FBS and penicillin–streptomycin. KAP^2D cells were authenticated using PCR (Kras locus and Trp53 locus). Phoenix-Eco packaging cells and HCT-15, HCT 116, COLO 205, LS 174T, RKO and HT-29 cells were authenticated by the provider using short tandem repeat profiling. No commonly misidentified cell lines were used. Mycoplasma contamination was excluded by a PCR-based analysis.
(§2) For in vitro treatment studies, organoids were mechanically dissociated and digested using TrypLE supplemented with 100 µg ml^−1 DNaseI and 10.5 µM Y-27632 dihydrochloride (Invitrogen) at 37 °C. A total of 1,000–2,000 single cells were plated per well in white 96-well plates (Greiner) in culture medium containing 10% GFR Matrigel or Cultrex BME. The treatment with doxycycline (5 µg ml^−1), pharmacological inhibitors or corresponding volumes of DMSO was started 24 h after plating. Doxycycline was obtained from Sigma-Aldrich. […] Cell viability was measured by means of CellTiter-Glo 3D or CellTiter-Glo 2.0 reagent (Promega) according to the manufacturers’ instructions and the Infinite M Plex reader (Tecan, i-control version 3.9.1 software). Results were normalized to vehicle (DMSO) or to shNC. For cell-doubling assays, the cell number was quantified at the corresponding time points using Guava EasyCyte flow cytometer (Luminex, CytoSoft v5.2 software).

KAP^2D cells [1] = test: quantification of viable KAP^2D cells over time (cell-doubling assay); assay type: cell-based, mouse; details: Fig. 4i
Method: The treatment with doxycycline (5 µg ml^−1), pharmacological inhibitors or corresponding volumes of DMSO was started 24 h after plating. […] Cell viability was measured by means of CellTiter-Glo 3D or CellTiter-Glo 2.0 reagent (Promega) according to the manufacturers’ instructions and the Infinite M Plex reader (Tecan, i-control version 3.9.1 software). Results were normalized to vehicle (DMSO) or to shNC. For cell-doubling assays, the cell number was quantified at the corresponding time points using Guava EasyCyte flow cytometer (Luminex, CytoSoft v5.2 software).

PDO6 = test: cell viability in patient-derived CRC organoids PDO6; assay type: cell-based, human
Method: as §2

p38α = p38α (Homo sapiens, UniProt Q16539); test: target residence time (TRT) fluorescence polarization jump-dilution assay; assay type: binding
Sequence of p38α (Q16539 whole entry): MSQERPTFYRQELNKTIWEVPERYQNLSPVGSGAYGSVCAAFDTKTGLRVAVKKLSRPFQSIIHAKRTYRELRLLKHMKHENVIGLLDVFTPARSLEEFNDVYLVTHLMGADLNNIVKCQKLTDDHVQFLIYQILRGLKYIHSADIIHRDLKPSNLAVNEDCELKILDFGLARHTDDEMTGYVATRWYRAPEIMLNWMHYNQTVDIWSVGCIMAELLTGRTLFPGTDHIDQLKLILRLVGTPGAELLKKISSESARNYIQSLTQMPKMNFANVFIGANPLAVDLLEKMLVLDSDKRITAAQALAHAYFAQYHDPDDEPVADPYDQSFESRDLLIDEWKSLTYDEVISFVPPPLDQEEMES
Method: TRTs were determined using a fluorescence polarization assay kit (Transcreener ADP, BellBrook Labs)[29]. […] The formed complex was ‘jump-diluted’ 1:100 (0.5 µl in 49.5 µl) in a 96-half-area-well plate with ATF2 (82 μM), ATP (40 μM) and ADP as the kinase assay detection reagents. The plate was measured every 3 min for 4 h. Fluorescence polarization was detected using the plate reader VictorNivo (PerkinElmer). The data were analyzed using the integrated rate equation in GraphPad Prism version 7.03 software. The residence time was calculated from the reciprocal value of koff.

COLO 205 = test: cell viability in human CRC cell line COLO 205; assay type: cell-based
Method: as §1, §2

KAP^2D cells [2] = test: annexin V apoptosis analysis in KAP^2D cells; assay type: cell-based, mouse; details: for Annexin V+ cells: Fig. 5a
Method: Apoptosis was analyzed with the FITC annexin V apoptosis detection kit (Biolegend). Both measurements were performed with FACS Canto II (BD) and physical parameters were used to exclude cell debris and cell doublets.

HCT 116 = test: cell viability in human CRC cell line HCT 116; assay type: cell-based
Method: as §1, §2

PDO14 = test: cell viability in patient-derived CRC organoids PDO14; assay type: cell-based, human
Method: as §2

PDO11 = test: cell viability in patient-derived CRC organoids PDO11; assay type: cell-based, human
Method: as §2

`CNC(=O)c1ccc2c(c1)C(=O)c1ccc(Nc3ccc(F)c(NC(=O)C4CC4)c3)cc1CC2` [Compound 2015] was tested, and the viability at 10 µM (HT-29; Repetition) was 6.64%, the viability at 10 µM (HT-29; first experiment) was 9.63% and the Number of cells (KAP^2D cells [1]; 0 h of treatment) was 41307.05 and 44263.95 and 43595.63 and 48502.24 and 40389.64. For the same compound, the Number of cells (KAP^2D cells [1]; 12 h of treatment) was 56623.49 and 67064.09 and 57491.63 and 61648.82 and 68603.21 and 63323.28, the Number of cells (KAP^2D cells [1]; 24 h of treatment) was 66705.14 and 74668.97 and 68938.05 and 94046.77 and 77517.08 and 74107.42 and the Number of cells (KAP^2D cells [1]; 36 h of treatment) was 95730.63 and 106064.51 and 93579.45 and 106339.60 and 110499.20 and 87144.95. The Number of cells (KAP^2D cells [1]; 48 h of treatment) was 89649.37 and 121264.28 and 95171.59 and 108694.60 and 121883.40 and 116976.50, the Number of cells (KAP^2D cells [1]; 60 h of treatment) was 136203.08 and 127468.86 and 129997.76 and 163066.30 and 164108.30 and 135189.10 and the viability at 0.5 µM (PDO6; Homo sapiens, 96 h, PDO6, 0.5 µM, 4 d) was 20.6%. For the same compound, the “Cell viability (%)” value (PDO6; PDO6, 0.5 µM, 4 d, 0.5 µM) was 31.27% and 20.78%, the “Cell viability (%)” value (PDO6; PDO6, 1 µM, 4 days, 1 µM) was 11.74% and 11.40% and 5.21% and the “TRT” value (p38α; Fig. 2e, replicates) was 4961.7 s and 5666.0 s and 5182.4 s. For the same compound, the TRT (p38α; reciprocal of koff) was 5,270 s, the “COLO 205 Cell viability (%)” value (COLO 205; 0.0137 µM, 4 d) was 86.20% and 87.62% and 93.54% and 93.70% and 89.28% and the “COLO 205 Cell viability (%)” value (COLO 205; 0.0412 µM, 4 d) was 89.23% and 86.13% and 86.46% and 84.55% and 84.12%. The “COLO 205 Cell viability (%)” value (COLO 205; 0.1235 µM, 4 d) was 81.05% and 83.81% and 80.44% and 77.94% and 85.49% and 51.55%, the “COLO 205 Cell viability (%)” value (COLO 205; 1.1111 µM, 4 d) was 10.16% and 10.58% and 11.54% and 5.54% and 4.72% and 3.60% and the “COLO 205 Cell viability (%)” value (COLO 205; 3.3333 µM, 4 d) was 11.93% and 11.65% and 12.34% and 6.53% and 6.09% and 5.93%. The “COLO 205 Cell viability (%)” value (COLO 205; 10.0000 µM, 4 d) was 14.19% and 14.06% and 18.78% and 17.19% and 10.60%, the IC50 (COLO 205; Homo sapiens, 96 h, COLO 205, 4 d of treatment) was 151 nM and the viability at 0.0137 µM (COLO 205; Homo sapiens, COLO 205, 96 h, 0.0137 µM, 4 d) was 88.4%. For the same compound, the viability at 0.0412 µM (COLO 205; Homo sapiens, COLO 205, 96 h, 0.0412 µM, 4 d) was 88.8%, the viability at 10 µM (COLO 205; Homo sapiens, COLO 205, 96 h, 10.0000 µM, 4 d, read-out: COLO 205 Cell viability (%)) was 13.9% and the “Annexin V+ cells” value (KAP^2D cells [2]; 1 d of treatment) was 23.30% and 25.40% and 24.30% and 22.30% and 24.90% and 20.90%. For the same compound, the “Annexin V+ cells” value (KAP^2D cells [2]; 2 d of treatment) was 41.00% and 47.90% and 34.70% and 29.60% and 31.10% and 30.20%, the “Annexin V+ cells” value (KAP^2D cells [2]; 3 d of treatment) was 53.10% and 40.00% and 40.60% and 42.30% and 39.50% and 37.30% and the “Annexin V+ cells” value (KAP^2D cells [2]; 4 d of treatment) was 66.80% and 62.60% and 62.90% and 52.60% and 53.50% and 56.70%. The “annexin V positivity (in words)” value (KAP^2D cells [2]; KAP^2D, after 3–4 days of treatment) was “strongly increased annexin V positivity”, the “HCT 116 Cell viability (%)” value (HCT 116; 0.0137 µM, 4 d) was 85.88% and 79.68% and 90.88% and 87.20% and the “HCT 116 Cell viability (%)” value (HCT 116; 0.0412 µM, 4 d) was 87.17% and 85.37% and 79.18% and 81.34% and 80.02%. The “HCT 116 Cell viability (%)” value (HCT 116; 0.1235 µM, 4 d) was 87.59% and 86.63% and 89.97% and 77.29% and 78.27%, the “HCT 116 Cell viability (%)” value (HCT 116; 0.3704 µM, 4 d) was 48.15% and 38.21% and 37.69% and 25.63% and 24.67% and 24.34% and the “HCT 116 Cell viability (%)” value (HCT 116; 1.1111 µM, 4 d) was 30.94% and 32.21% and 17.75% and 19.27% and 17.57%. For the same compound, the IC50 (HCT 116; Homo sapiens, 96 h, HCT 116, 4 d of treatment) was 223 nM, the viability at 0.0137 µM (HCT 116; Homo sapiens, HCT-116, 96 h, 0.0137 µM, 4 d, read-out: HCT 116 Cell viability (%)) was 90.6% and the viability at 0.0412 µM (HCT 116; Homo sapiens, HCT-116, 96 h, 0.0412 µM, 4 d, read-out: HCT 116 Cell viability (%)) was 90.7%. It also gave a viability at 0.1235 µM (HCT 116; Homo sapiens, HCT-116, 96 h, 0.1235 µM, 4 d, read-out: HCT 116 Cell viability (%)) of 90.7%, a viability at 1.1111 µM (HCT 116; Homo sapiens, HCT-116, 96 h, 1.1111 µM, 4 d) of 28.5% and a viability at 1 µM (PDO14; Homo sapiens, 96 h, PDO14, 1 µM, 4 days, read-out: Cell viability (%)) of 38%. The “Cell viability (%)” value (PDO14; PDO14, 0.5 µM, 4 d, 0.5 µM) was 66.36% and 80.25% and 88.11%, the “Cell viability (%)” value (PDO14; PDO14, 1 µM, 4 days, 1 µM) was 35.04% and 42.53% and the viability at 0.5 µM (PDO11; Homo sapiens, 96 h, PDO11, 0.5 µM, 4 d, read-out: Cell viability (%)) was 105%. The viability at 1 µM (PDO11; Homo sapiens, 96 h, PDO11, 1 µM, 4 days) was 10.3%, the “Cell viability (%)” value (PDO11; PDO11, 0.5 µM, 4 d, 0.5 µM) was 87.92% and 104.04% and the “Cell viability (%)” value (PDO11; PDO11, 1 µM, 4 days, 1 µM) was 16.83% and 13.26%.
